{
  "source": "patent US11702404B2",
  "about": "“GLP-1R modulating compounds” (priority 2019, dated 2023)",
  "key": {"[1]": {"assay": "Microsomal stability, human liver microsomes (predicted hepatic clearance)", "conditions": "predicted from in vitro microsomal stability data"}, "GLP-1R": {"target": "GLP-1R (Homo sapiens, UniProt P43220)", "sequence (P43220 24-463)": "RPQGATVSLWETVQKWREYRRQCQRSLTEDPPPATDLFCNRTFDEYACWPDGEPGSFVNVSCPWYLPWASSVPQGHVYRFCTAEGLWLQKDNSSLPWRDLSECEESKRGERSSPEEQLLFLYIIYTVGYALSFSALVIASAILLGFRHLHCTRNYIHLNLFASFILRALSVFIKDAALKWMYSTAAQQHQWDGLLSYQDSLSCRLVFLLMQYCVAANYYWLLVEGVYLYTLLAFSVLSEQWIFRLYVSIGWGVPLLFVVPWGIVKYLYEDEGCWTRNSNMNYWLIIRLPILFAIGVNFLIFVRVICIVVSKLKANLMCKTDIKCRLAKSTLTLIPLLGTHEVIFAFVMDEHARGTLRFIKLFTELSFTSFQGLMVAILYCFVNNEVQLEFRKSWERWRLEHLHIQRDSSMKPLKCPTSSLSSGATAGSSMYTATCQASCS", "assay": "GLP-1R activation: cAMP increase in CHO cells stably expressing GLP-1R", "assay_type": "cell-based"}, "[2]": {"conditions": "cAMP increase, CHO cells stably expressing GLP-1R, 10 point dose response, 30 minutes incubation, read-out: EC50"}},
  "note": "Read-outs that look alike come from different tables or passages of the source.",
  "data": [
    {"smiles": "COCCn1c(Cc2ccc(-c3cccc(OCc4ccc(C#CC(C)(C)O)cc4F)n3)cc2F)nc2ccc(C(=O)O)cc21", "note": "[Example 841]", "values": [
      {"measurement": "Predicted Hepatic Clearance (Pred. Cl.)", "setting": "[1]", "value": 6.17, "unit": "mL/min/kg"},
      {"measurement": "EC50", "setting": "GLP-1R; [2]", "value": 164, "unit": "nM"}
    ]},
    {"smiles": "COCCn1c(Cc2ccc(-c3cccc(OCc4ccc(C#Cc5cncnc5)cc4F)n3)cc2F)nc2ccc(C(=O)O)cc21", "note": "[Example 842, 2-(2-fluoro-4-(6-((2-fluoro-4-(pyrimidin-5-ylethynyl)benzyl)oxy)pyridin-2-yl)benzyl)-1-(2-methoxyethyl)-1H-benzo[d]imidazole-6-carboxylic acid]", "values": [
      {"measurement": "Predicted Hepatic Clearance (Pred. Cl.)", "setting": "[1]", "value": 1.83, "unit": "mL/min/kg"},
      {"measurement": "EC50", "setting": "GLP-1R; [2]", "value": 4.73, "unit": "nM"}
    ]},
    {"smiles": "COCCn1c(Cc2ccc(-c3cccc(OCc4ccc(C#CC5CC5)cc4F)n3)cc2F)nc2ccc(C(=O)O)cc21", "note": "[Example 843]", "values": [
      {"measurement": "Predicted Hepatic Clearance (Pred. Cl.)", "setting": "[1]", "value": 2.67, "unit": "mL/min/kg"},
      {"measurement": "EC50", "setting": "GLP-1R; [2]", "value": 17.2, "unit": "nM"}
    ]},
    {"smiles": "COCCn1c(Cc2cc(F)c(-c3cccc(OCc4ccc(C#N)cc4COC)n3)cc2F)nc2ccc(C(=O)O)cc21", "note": "[Example 844, 2-(4-(6-((4-cyano-2-(methoxymethyl)benzyl)oxy)pyridin-2-yl)-2,5-difluorobenzyl)-1-(2-methoxyethyl)-1H-benzo[d]imidazole-6-carboxylic acid]", "values": [
      {"measurement": "Predicted Hepatic Clearance (Pred. Cl.)", "setting": "[1]", "value": 2.5, "unit": "mL/min/kg"},
      {"measurement": "EC50", "setting": "GLP-1R; [2]", "value": 13, "unit": "nM"}
    ]},
    {"smiles": "COCCn1c(Cc2ccc(-c3cccc(OCc4ccc(COC)cc4F)n3)cc2F)nc2ccc(C(=O)O)cc21", "note": "[Example 845, 2-(2-fluoro-4-(6-((2-fluoro-4-(methoxymethyl)benzyl)oxy)pyridin-2-yl)benzyl)-1-(2-methoxyethyl)-1H-benzo[d]imidazole-6-carboxylic acid]", "values": [
      {"measurement": "Predicted Hepatic Clearance (Pred. Cl.)", "setting": "[1]", "value": 12.3, "unit": "mL/min/kg"},
      {"measurement": "EC50", "setting": "GLP-1R; EC50 (nM)", "value": 18, "unit": "nM"}
    ]},
    {"smiles": "CCOC(=O)c1ccc2nc(Cc3cc(F)c(-c4cccc(OCc5ccc(C#N)cc5F)n4)cc3F)n(CCOC)c2c1", "note": "[Example 847, Ethyl 2-(4-(6-((4-cyano-2-fluorobenzyl)oxy)pyridin-2-yl)-2,5-difluorobenzyl)-1-(2-methoxyethyl)-1H-benzo[d]imidazole-6-carboxylate]", "values": [
      {"measurement": "Predicted Hepatic Clearance (Pred. Cl.)", "setting": "[1]", "value": 6, "unit": "mL/min/kg"},
      {"measurement": "EC50", "setting": "GLP-1R; [2]", "value": 537, "unit": "nM"}
    ]},
    {"smiles": "CC(=O)N1C[C@H](O)C[C@@H]1Cn1c(Cc2cc(F)c(-c3cccc(OCc4ccc(C#N)cc4F)n3)cc2F)nc2ccc(C(=O)O)cc21", "note": "[Example 848]", "values": [
      {"measurement": "Predicted Hepatic Clearance (Pred. Cl.)", "setting": "[1]", "value": 2.83, "unit": "mL/min/kg"},
      {"measurement": "EC50", "setting": "GLP-1R; [2]", "value": 4.08, "unit": "nM"}
    ]},
    {"smiles": "CC(=O)N1CC2CC1(Cn1c(Cc3cc(F)c(-c4cccc(OCc5ccc(C#N)cc5F)n4)cc3F)nc3ccc(C(=O)O)cc31)C2", "note": "[Example 849, 1-((2-acetyl-2-azabicyclo[2.1.1]hexan-1-yl)methyl)-2-(4-(6-((4-cyano-2-fluorobenzyl)oxy)pyridin-2-yl)-2,5-difluorobenzyl)-1H-benzo[d]imidazole-6-carboxylic acid]", "values": [
      {"measurement": "Predicted Hepatic Clearance (Pred. Cl.)", "setting": "[1]", "value": 5.33, "unit": "mL/min/kg"},
      {"measurement": "EC50", "setting": "GLP-1R; read-out: EC50", "value": 14.2, "unit": "nM"}
    ]},
    {"smiles": "COc1cc(C#N)ncc1COc1cccc(-c2cc(F)c(Cc3nc4ccc(C(=O)O)cc4n3C[C@@H]3CCO3)cc2F)n1", "note": "[Example 850, (S)-2-(4-(6-((6-Cyano-4-methoxypyridin-3-yl)methoxy)pyridin-2-yl)-2,5-difluorobenzyl)-1-(oxetan-2-ylmethyl)-1H-benzo[d]imidazole-6-carboxylic acid]", "values": [
      {"measurement": "Predicted Hepatic Clearance (Pred. Cl.)", "setting": "[1]", "value": 3.33, "unit": "mL/min/kg"},
      {"measurement": "EC50", "setting": "GLP-1R; [2]", "value": 0.23, "unit": "nM"}
    ]},
    {"smiles": "O=C(O)c1ccc2nc(Cc3cc(F)c(-c4cccc(OCc5cnc(Cl)cc5F)n4)cc3F)n(C[C@@H]3CCO3)c2c1", "note": "[Example 851]", "values": [
      {"measurement": "Predicted Hepatic Clearance (Pred. Cl.)", "setting": "[1]", "value": 2.5, "unit": "mL/min/kg"},
      {"measurement": "EC50", "setting": "GLP-1R; [2]", "value": 0.25, "unit": "nM"}
    ]},
    {"smiles": "N#Cc1ccc(COc2ccc(F)c(-c3cc(F)c(Cc4nc5c(F)cc(C(=O)O)cc5n4C[C@@H]4CCO4)cc3F)n2)cn1", "note": "[Example 852, (S)-2-(4-(6-((6-cyanopyridin-3-yl)methoxy)-3-fluoropyridin-2-yl)-2,5-difluorobenzyl)-4-fluoro-1-(oxetan-2-ylmethyl)-1H-benzo[d]imidazole-6-carboxylic acid]", "values": [
      {"measurement": "Predicted Hepatic Clearance (Pred. Cl.)", "setting": "[1]", "value": 4.5, "unit": "mL/min/kg"},
      {"measurement": "EC50", "setting": "GLP-1R; [2]", "value": 0.24, "unit": "nM"}
    ]},
    {"smiles": "COc1cc(Cl)ncc1COc1cccc(-c2cc(F)c(Cc3nc4ccc(C(=O)O)cc4n3C[C@@H]3CCO3)cc2F)n1", "note": "[Example 853]", "values": [
      {"measurement": "Predicted Hepatic Clearance (Pred. Cl.)", "setting": "[1]", "value": 9, "unit": "mL/min/kg"},
      {"measurement": "EC50", "setting": "GLP-1R; [2]", "value": 0.15, "unit": "nM"}
    ]}
  ]
}
